# What was measured:
# [1] = system: maximal electroshock seizures in mice; experiment: Maximal electroshock seizure test (MES); assay type: in vivo
# Procedure: (§1) Initial screening was performed on groups of 4 mice. The mean effective dose (ED50) in a given test and the neurotoxic dose in the rotarod test (TD50) were estimated on the basis of the results obtained on 3-4 groups of animals consisting of 6 animals.
# In the maximal electroshock seizure test (MES), the seizures were induced by 500 V, 25 mA electrical stimulus of 0.2 s in duration. The electrical pulse was generated using an electric shock generator (Rodent shocker, Type 221, Hugo Sachs Elektronik, Germany) and delivered to the animal using electrodes placed on the auricles. The study was conducted 30 minutes/2 hours after intraperitoneal administration of the compounds at various doses. During the experiment, the number of animals that experienced a seizure episode in the form of hindlimb tonic extension was counted (Łuszczki, J.J. et al. Fundam. Clin. Pharmacol. 2008, 22, 69-74).
# (§2) The ED50 (effective dose) and TD50 (toxic dose) values along with the corresponding 95% confidence limits were calculated based on the Litchfield and Wilcoxon method (Litchfield, J.T.; Wilcoxon, F. J. Pharmacol. Exp. Ther. 1949, 96, 99-113). To perform a statistical evaluation of the results in the scPTZ test, one-way ANOVA variance analysis followed by Dunnett's post hoc test were used. The values were considered statistically significant if p<0.05.
# [2] = system: spontaneous locomotor activity of mice; details: mouse, in vivo
# Procedure: For this purpose, the number of light beam crossings in the cages was counted in each group of animals during a 30-minute observation.
# The experiments were carried out on male albino mice (CD-1) weighing 25-30 g, provided by an accredited animal facility. All procedures were performed in accordance with the applicable Polish and European guidelines on the ethics of research on animals, after obtaining the appropriate approval. The substance was administered intraperitoneally after suspension in a 1% Tween 80 solution, as single injections of 0.1 mL/10 g b.w., 30 minutes before a given test.
# The assessment of the influence of the tested compound on the spontaneous locomotor activity of animals (assessment of the sedative or activating effect) was carried out in accordance with the methodology described in the scientific literature (Mogilski et al. Inflamm. Res. 2017, 66, 79-95), using a cage with dimensions 40×40×31 cm (Activity Cage; Ugo Basile, Gemonio VA, Italy). The compound was administered 30 minutes before the experiment. The number of light beam crossings was counted in each group during the next 30 min at 10-minute intervals. The study group consisted of 10 animals.
# [3] = system: psychomotor seizures induced by a 32 mA, 6 Hz stimulus in mice; experiment: Psychomotor seizure test 6 Hz (32 mA); assay type: in vivo
# Procedure: as §1
# (§3) In the psychomotor seizure test (6 Hz test), seizures were induced by a 32 mA and/or 44 mA electrical stimulus of a frequency of 6 pulses per second. An electrical pulse was generated using an electric shock generator (ECT Unit 57800; Ugo Basile, Gemonio, Italy) and delivered to the animal using corneal electrodes. Before starting the test, the eye surface was gently moistened with a solution of local anesthetic (1% lidocaine solution). The study was conducted 30 minutes/2 hours after intraperitoneal administration of the compounds at various doses. An electrical stimulus was delivered continuously for a period of 3 seconds, followed by observation of the animal for a period of 10 seconds. During the experiment, the number of animals with an episode of psychomotor convulsions was counted: motor inhibition, staggering, maintaining a sitting posture, forelimb clonus, twitching of the vibrissae and Straub-tail were observed (Leclercq, K.; Kaminski, R.M. Epilepsia 2015, 56, 310-318).
# as §2
# [4] = system: human liver microsomes (HLMs); experiment: In vitro metabolic stability, human liver microsomes; assay type: in vitro ADME; details: 120-minute incubation with HLMs
# Procedure: (§4) Metabolic stability assessment was performed using mouse (MLMs) and human (HLMs) liver microsomes purchased from Sigma-Aldrich (St. Louis, MO, USA). The detailed methodology is described in the literature (Kamiński et al. J. Med. Chem. 2015, 58, 5274-5286). The reaction mixture was prepared by mixing […] of the tested compound with mouse or human microsomes (1 mg/mL) in 10 mM TRIS-HCl buffer. The reaction mixture was pre-incubated for 5 min at 37° C. After the initial incubation, 50 μL of the NADPH Regeneration System (Promega, Madison, WI, USA) was added to initiate the reaction. The reaction mixture was then incubated for 120 min at 37° C. 200 μL of cold extra pure methanol was added to complete the reaction. The mixture was then centrifuged at 14,000 g for 15 min and the supernatants were analyzed using a Waters ACQUITY™ TQD LC/MS system with a TQ detector (Waters, Milford, USA). Each experiment was performed in triplicate.
# [5] = system: mouse liver microsomes (MLMs); experiment: In vitro metabolic stability, mouse liver microsomes; assay type: in vitro ADME; details: 120-minute incubation with MLMs, NADPH
# Procedure: as §4
# [6] = system: formalin-induced pain in mice; experiment: Formalin test (tonic pain); assay type: in vivo; details: for nociceptive response, first phase of the formalin test, % of the baseline (control): phase I (0-5 min); for nociceptive response, second phase of the formalin test, % of baseline (control): phase II (15-30 min); for ED50 (dose reducing the nociceptive response by 50%), formalin test: i.p.
# Procedure: Pain was induced with a chemical agent by intraplantar injection of 2.5% formalin solution in mice in a constant volume of 20 μL. The animals were placed in separate, transparent observation chambers for a period of 30 minutes. The measured value was the total licking and biting time of the formalin-treated paw. The nociceptive response was counted in two time intervals: 0-5 minutes from formalin injection (phase I of the test-acute pain) and 15-30 minutes from its administration (phase II of the test-inflammatory pain). The observed inhibition of the nociceptive response-shortening the time of licking and biting the paw, was interpreted as an analgesic effect of the tested compound.
# (§5) All tests/models were performed based on procedures described in the specialist literature: formalin test (Beirith et al. Eur. J. Pharmacol. 1998, 345, 233-245), capsaicin-induced pain model (Mogilski et al. Pharmacol. Biochem. Behav. 2015, 133, 99-110), oxaliplatin-induced neuropathic pain model-von Frey's test (Sałat et al. Pharmacol. Biochem. Behav. 2014, 122, 173-181), streptozotocin-induced diabetic neuropathic pain model-von Frey's test (Sałat et al. Neuropharmacology 2017, 125, 181-188; Tanabe et al. J. Pharmacol. Sci. 2008, 107, 213-220). The test group consisted of 8-10 animals.
# [7] = system: capsaicin-induced pain in mice; experiment: Capsaicin-induced pain model; assay type: in vivo
# Procedure: This test evaluated the licking and/or biting time of the hind paw after intraplantar injection of 1.6 μg of capsaicin in a constant volume of 20 μL. Observation was carried out in the period of 5 minutes after capsaicin administration. Inhibition of the nociceptive response —shortening the time of licking and biting the paw, was a measure of the antinociceptive activity of the tested compound.
# as §5
# [8] = system: psychomotor seizures induced by a 44 mA, 6 Hz stimulus in mice; experiment: Psychomotor seizure test 6 Hz (44 mA); assay type: in vivo; details: in mg/kg
# Procedure: as §1, §3, §2
# [9] = system: streptozotocin-induced mechanical allodynia in mice; experiment: Streptozotocin-induced diabetic neuropathic pain model, von Frey test; assay type: in vivo; details: three weeks after STZ
# Procedure: The response was tested 3 weeks after the streptozotocin injection. […] Importantly, d4-(R)-1 completely abolished the symptoms of developing sensory neuropathy at all doses.
# as §5
# [10] = 0.5 h after i.p. administration
# [11] = 2.0 h after i.p. administration
structure (smiles),measurement,setting,value
"[2H]C1([2H])C(=O)N([C@H](C)C(=O)NCc2ccccc2)C(=O)C1([2H])[2H] [d4-(R)-1, (R)-N-benzyl-2-(2,5-dioxopyrrolidin-1-yl-3,3,4,4-d4) propanamide]",ED50 MES,[1]; [10],43.7 mg/kg
same,ED50 MES,[1]; [11],50.1 mg/kg
same,"locomotor activity (light beam crossings in 30 min), % of the initial value (vehicle)",[2],46.90%
same,ED50 6 Hz (32 mA),[3]; [10],18.6 mg/kg
same,ED50 6 Hz (32 mA),[3]; [11],46.4 mg/kg
same,metabolic stability,[4],high metabolic stability
same,metabolic stability (metabolites in UPLC chromatograms),[5],no metabolites appeared
same,"nociceptive response, first phase of the formalin test, % of the baseline (control)",[6]; i.p. 30 mg/kg,46.80%
same,"nociceptive response, second phase of the formalin test, % of baseline (control)",[6]; i.p. 30 mg/kg,46.04%
same,"nociceptive response, first phase of the formalin test, % of the baseline (control)",[6]; i.p. 60 mg/kg,49.85%
same,"nociceptive response, second phase of the formalin test, % of baseline (control)",[6]; i.p. 60 mg/kg,56.06%
same,"nociceptive response, first phase of the formalin test, % of the baseline (control)",[6]; i.p. 90 mg/kg,64.40%
same,"nociceptive response, second phase of the formalin test, % of baseline (control)",[6]; i.p. 90 mg/kg,43.36%
same,"nociceptive response, first phase of the formalin test, % of the baseline (control)",[6]; i.p. 120 mg/kg,39.68%
same,"nociceptive response, second phase of the formalin test, % of baseline (control)",[6]; i.p. 120 mg/kg,30.24%
same,"ED50 (dose reducing the nociceptive response by 50%), formalin test",[6]; phase I,97.9 mg/kg
same,"ED50 (dose reducing the nociceptive response by 50%), formalin test",[6]; phase II,71.5 mg/kg
same,"ED50, capsaicin test",[7]; i.p.,17.5 mg/kg
same,"nociceptive response in the capsaicin test, % of the initial value (control)",[7]; i.p. 30 mg/kg,31.77%
same,"nociceptive response in the capsaicin test, % of the initial value (control)",[7]; i.p. 60 mg/kg,38.72%
same,"nociceptive response in the capsaicin test, % of the initial value (control)",[7]; i.p. 90 mg/kg,10.90%
same,ED50 6 Hz (44 mA),[8]; [10],79.2
same,ED50 6 Hz (44 mA),[8]; [11],125.3
same,pain threshold (von Frey),[9]; 30 mg/kg i.p.,6.80 ± 0.54 g
same,"pain threshold, % of baseline",[9]; 30 mg/kg i.p.,115.4%
same,pain threshold (von Frey),[9]; 60 mg/kg i.p.,8.64 ± 0.72 g
same,"pain threshold, % of baseline",[9]; 60 mg/kg i.p.,146.6%
same,pain threshold (von Frey),[9]; 90 mg/kg i.p.,9.40 ± 0.61 g
same,"pain threshold, % of baseline",[9]; 90 mg/kg i.p.,159.6%

# From patent US20250042848A1, “DEUTERATED FUNCTIONALIZED DERIVATIVES OF alpha-ALANINE, IN [sequence] FOR THE TREATMENT OF NEUROLOGICAL DISEASES” (UNIWERSYTET JAGIELLONSKI, priority 2021, published 2025)
